Laboratory results published in EP0049683A2, “Imidazo-rifamycines, process for their preparation, pharmaceutical preparations containing them and their use” (CIBA-GEIGY AG, priority 1980, dated 1982).
Values after ≈ are worked out from the molar mass of the structure shown.

Assays:
Assay in all cases: Agar dilution MIC in DST agar (Ericsson and Sherris)
Type in all cases: cell-based
Escherichia coli 205 = conditions: for MIC Esch. 205: in vitro; for MIC: Escherichia coli, 205, in vitro, read-out: MIC Esch. 205
Excerpt: (§1) Die antibiotische Aktivität der Testverbindungen in vitro wurde durch die Agarverdünnungsmethode nach Ericsson, H.M., und Sherris, S.C., 1971, Acta Path. Microb. Scand. Section B, Suppl. No. 217, Bd. 1-90, in DST Agara ermittelt. Die gefundenen, das Wachstum der Testorganismen noch hemmenden Minimalkonzentrationen (MIC = minimum inhibiting concentrations) werden in Mikrogramm pro Milliliter (µg/ml) für die geprüften Verbindungen in der Tabelle 1 angegeben.

Proteus morganii 1518 = conditions: for MIC Prot. 1518: in vitro; for MIC: Morganella morganii, 1518, in vitro, read-out: MIC Prot. 1518
Excerpt: as §1

[1] = test system: Pseudomonas aeruginosa K 799/61; conditions: for MIC Pseu. 799: in vitro, agar dilution, DST agar; for MIC: Pseudomonas aeruginosa, K799/61, read-out: MIC Pseu. 799
Excerpt: as §1

[2] = test system: Salmonella Typhimurium 277; conditions: in vitro; for MIC: Salmonella enterica, TYPHIMURIUM, read-out: MIC Salm. 277
Excerpt: as §1

Proteus morganii 2359 = conditions: for MIC Prot. 2359: in vitro; for MIC: Morganella morganii, 2359, in vitro, read-out: MIC Prot. 2359
Excerpt: as §1

Escherichia coli 2018 = conditions: for MIC Esch. 2018: in vitro; for MIC: Escherichia coli, 2018, in vitro, read-out: MIC Esch. 2018
Excerpt: as §1

[3] = test system: Staphylococcus aureus 2999; conditions: in vitro
Excerpt: as §1

[4] = test system: Staphylococcus aureus 10B; conditions: in vitro; for MIC: Staphylococcus aureus, 10B, read-out: MIC Staph. 10B
Excerpt: as §1

Compound | MIC Esch. 205 (Escherichia coli 205) [µg/mL] | MIC Prot. 1518 (Proteus morganii 1518) [µg/mL] | MIC Pseu. 799 [1] [µg/mL] | MIC Salm. 277 [2] [µg/mL] | MIC Prot. 2359 (Proteus morganii 2359) [µg/mL] | MIC Esch. 2018 (Escherichia coli 2018) [µg/mL] | MIC Staph. 2999 [3] [µg/mL] | MIC Staph. 10B [4] [µg/mL] | MIC (Escherichia coli 205) [µg/mL] | MIC (Proteus morganii 1518) [µg/mL] | MIC [1] [µg/mL] | MIC [2] [µg/mL] | MIC (Proteus morganii 2359) [µg/mL] | MIC (Escherichia coli 2018) [µg/mL] | MIC [4] [µg/mL]
4-(2,6-Dimethyl-morpholino)-imidazolo[4,5-c]rifamycin SV [Verbindung 29] | 32 | 8 | 8 | 128 | 8 | 32 | – | – | – | – | – | – | – | – | –
4-(3-Diethylaminocarbonyl-1-piperidyl)-imidazolo[4,5-c]-rifamycin SV [Verbindung 26] | 16 | 16 | 16 | 84 | 16 | 32 | 0.01 | 0.05 | – | – | – | – | – | – | –
4-(4-Butylpiperazinyl)-imidazolo[4,5-c]rifamycin SV [Verbindung 33] | 8 | 4 | 32 | 32 | 4 | 2 | 0.001 | 0.001 | – | – | – | – | – | – | –
4-(4-Ethoxycarbonylpiperazinyl)-imidazolo[4,5-c]rifamycin SV [Verbindung 67] | 16 | 16 | 32 | 64 | 16 | 16 | 0.005 | 0.005 | – | – | – | – | – | – | –
4-(4-Heptylpiperazinyl)-imidazolo[4,5-c]rifamycin SV [Verbindung 36] | 2 | 8 | 8 | 32 | 8 | 8 | – | – | – | – | – | – | – | – | –
4-(4-Hexylpiperazinyl)-imidazolo[4,5-c]rifamycin SV [Verbindung 35] | 8 | 8 | 8 | 32 | 8 | 8 | – | – | – | – | – | – | – | – | –
4-(4-Isobutyl-2-methyl-piperazinyl)-imidazolo[4,5-c]rifamycin SV [Verbindung 75] | 8 | 2 | 32 | 32 | 8 | 8 | – | 0.01 | – | – | – | – | – | – | –
4-(4-Isopropyloxycarbonylpiperazinyl)-imidazolo[4,5-c]-rifamycin SV [Verbindung 68] | 32 | 8 | 8 | 32 | 32 | 32 | – | 0.01 | – | – | – | – | – | – | –
4-(4-Pentylpiperazinyl)-imidazolo[4,5-c]rifamycin SV [Verbindung 34] | 8 | 8 | 32 | 32 | 8 | 2 | – | – | – | – | – | – | – | – | –
4-(N-Butyl-N-methylamino)-imidazolo[4,5-c]rifamycin SV [Verbindung 9] | 8 | 1 | 8 | 32 | 8 | 8 | – | – | – | – | – | – | – | – | –
4-Thiomorpholino-imidazolo[4,5-c]rifamycin SV [Verbindung 30] | 8 | 8 | 32 | 32 | 8 | 8 | – | – | – | – | – | – | – | – | –
4-[4-(1-Ethylpropyl)-piperazinyl]-imidazolo[4,5-c]rifamycin SV [Verbindung 41] | 8 | 8 | 32 | – | 8 | 2 | – | 0.005 | – | – | – | – | – | – | –
4-[4-(2-Methyl-3-phenyl-propyl)-piperazinyl]-imidazolo- [4,5-c]rifamycin SV [Verbindung 58] | 16 | 16 | 16 | 32 | 16 | – | 0.005 | 0.005 | – | – | – | – | – | – | –
CCN(CC)c1nc2c3c(O)c4c(O)c(C)c5c(c4c2[nH]1)C(=O)C(C)(OC=CC(OC)C(C)C(OC(C)=O)C(C)C(O)C(C)C(O)C(C)C=CC=C(C)C(=O)N3)O5 (stereo not drawn) [Verbindung 6, 4-Diethylamino-imidazolo[4,5-c]rifamycin SV] | – | – | – | – | – | – | – | – | 128 (≈ 161 µM) | 128 (≈ 161 µM) | 128 (≈ 161 µM) | 128 (≈ 161 µM) | 128 (≈ 161 µM) | 128 (≈ 161 µM) | –
CO[C@H]1/C=C/O[C@@]2(C)Oc3c(C)c(O)c4c(O)c(c5[nH]c(N6CCc7ccccc76)nc5c4c3C2=O)NC(=O)/C(C)=C\C=C\[C@H](C)[C@H](O)[C@@H](C)[C@@H](O)[C@@H](C)[C@H](OC(C)=O)[C@@H]1C [Verbindung 20, 4-Indolinyl-imidazolo[4,5-c]rifamycin SV] | – | – | – | – | – | – | – | – | 8 (≈ 9.54 µM) | 4 (≈ 4.77 µM) | 16 (≈ 19.1 µM) | 32 (≈ 38.1 µM) | 8 (≈ 9.54 µM) | 8 (≈ 9.54 µM) | –
CCCC(C)CN1CCN(c2nc3c([nH]2)c2c(O)c4c(O)c(C)c5c(c43)C(=O)[C@@](C)(O/C=C/[C@H](OC)[C@@H](C)[C@@H](OC(C)=O)[C@H](C)[C@H](O)[C@H](C)[C@@H](O)[C@@H](C)/C=C/C=C(/C)C(=O)N2)O5)CC1 (stereo partly drawn) [Verbindung 39, 4-[4-(2-Methylpentyl)-piperazinyl]-imidazolo[4,5-c]-rifamycin SV] | – | – | – | – | – | – | – | – | 8 (≈ 8.99 µM) | 8 (≈ 8.99 µM) | 32 (≈ 36 µM) | 32 (≈ 36 µM) | 8 (≈ 8.99 µM) | 8 (≈ 8.99 µM) | –
CCC(C)CCN1CCN(c2nc3c([nH]2)c2c(O)c4c(O)c(C)c5c(c43)C(=O)[C@@](C)(O/C=C/[C@H](OC)[C@@H](C)[C@@H](OC(C)=O)[C@H](C)[C@H](O)[C@H](C)[C@@H](O)[C@@H](C)/C=C/C=C(/C)C(=O)N2)O5)CC1 (stereo partly drawn) [Verbindung 42, 4-[4-(3-Methylpentyl)-piperazinyl]-imidazolo[4,5-c]-rifamycin SV] | – | – | – | – | – | – | – | – | 8 (≈ 8.99 µM) | 8 (≈ 8.99 µM) | 32 (≈ 36 µM) | 32 (≈ 36 µM) | 8 (≈ 8.99 µM) | 8 (≈ 8.99 µM) | 0.005 (≈ 0.00562 µM)
C=CCN1CCN(c2nc3c([nH]2)c2c(O)c4c(O)c(C)c5c(c43)C(=O)[C@@](C)(O/C=C/[C@H](OC)[C@@H](C)[C@@H](OC(C)=O)[C@H](C)[C@H](O)[C@H](C)[C@@H](O)[C@@H](C)/C=C/C=C(/C)C(=O)N2)O5)CC1 [Verbindung 44, 4-(4-Allylpiperazinyl)-imidazolo[4,5-c]rifamycin SV] | – | – | – | – | – | – | – | – | 8 (≈ 9.46 µM) | 8 (≈ 9.46 µM) | 32 (≈ 37.8 µM) | 32 (≈ 37.8 µM) | 8 (≈ 9.46 µM) | 8 (≈ 9.46 µM) | –
C=C(C)CN1CCN(c2nc3c([nH]2)c2c(O)c4c(O)c(C)c5c(c43)C(=O)[C@@](C)(O/C=C/[C@H](OC)[C@@H](C)[C@@H](OC(C)=O)[C@H](C)[C@H](O)[C@H](C)[C@@H](O)[C@@H](C)/C=C/C=C(/C)C(=O)N2)O5)CC1 [Verbindung 46, 4-[4-(2-Methyl-2-propenyl)-piperazinyl]-imidazolo[4,5-c]-rifamycin SV] | – | – | – | – | – | – | – | – | 32 (≈ 37.2 µM) | 8 (≈ 9.3 µM) | 32 (≈ 37.2 µM) | 32 (≈ 37.2 µM) | 8 (≈ 9.3 µM) | 8 (≈ 9.3 µM) | –
CO[C@H]1/C=C/O[C@@]2(C)Oc3c(C)c(O)c4c(O)c(c5nc(N6CCN(C7CCCCC7)CC6)[nH]c5c4c3C2=O)NC(=O)/C(C)=C\C=C\[C@H](C)[C@H](O)[C@@H](C)[C@@H](O)[C@@H](C)[C@H](OC(C)=O)[C@@H]1C [Verbindung 51, 4-(4-Cyclohexylpiperazinyl)-imidazolo[4,5-c]rifamycin SV] | – | – | – | – | – | – | – | – | 8 (≈ 9.01 µM) | 8 (≈ 9.01 µM) | 8 (≈ 9.01 µM) | 32 (≈ 36 µM) | 8 (≈ 9.01 µM) | 32 (≈ 36 µM) | 0.01 (≈ 0.0113 µM)
CO[C@H]1/C=C/O[C@@]2(C)Oc3c(C)c(O)c4c(O)c(c5nc(N6CCN(c7ccccc7)CC6)[nH]c5c4c3C2=O)NC(=O)/C(C)=C\C=C\[C@H](C)[C@H](O)[C@@H](C)[C@@H](O)[C@@H](C)[C@H](OC(C)=O)[C@@H]1C [Verbindung 52, 4-(4-Phenylpiperazinyl)-imidazolo[4,5-c]rifamycin SV] | – | – | – | – | – | – | – | – | 32 (≈ 36.3 µM) | 8 (≈ 9.07 µM) | 32 (≈ 36.3 µM) | 32 (≈ 36.3 µM) | 8 (≈ 9.07 µM) | 8 (≈ 9.07 µM) | –
CO[C@H]1/C=C/O[C@@]2(C)Oc3c(C)c(O)c4c(O)c(c5nc(N6CCN(CC7CCCCCC7)CC6)[nH]c5c4c3C2=O)NC(=O)/C(C)=C\C=C\[C@H](C)[C@H](O)[C@@H](C)[C@@H](O)[C@@H](C)[C@H](OC(C)=O)[C@@H]1C [Verbindung 56] | – | – | – | – | – | – | – | – | 8 (≈ 8.73 µM) | 8 (≈ 8.73 µM) | 32 (≈ 34.9 µM) | 32 (≈ 34.9 µM) | 8 (≈ 8.73 µM) | 8 (≈ 8.73 µM) | 0.005 (≈ 0.00546 µM)
